# Measurements: US20140080810A1 (Exelixis, Inc., priority 2010, published 2014)
# Columns and labels:
# mTOR/GbL/Raptor (mTORC1) = mTOR/GbL/Raptor (mTORC1) (Homo sapiens, UniProt P42345); assay: mTOR/GbL/Raptor (mTORC1) ELISA Assay; format: biochemical; details: 4E-BP1 phosphorylation, 0.2 nM mTORC1, 10 μM ATP; last bin: >= 2,000 nM or not active under the conditions the assay was run; read-out: IC50 in this assay (mTORC1)
# Protocol: The measurement of mTORC1 enzyme activity was performed in an ELISA assay format following the phosphorylation of 4E-BP1 protein. All experiments were performed in the 384-well format. Generally, 0.5 μL DMSO containing varying concentrations of the test Compound was mixed with 15 μL enzyme solution. Kinase reactions were initiated with the addition of 15 μL of substrates-containing solution. The assay conditions were as follows; 0.2 nM mTORC1, 10 μM ATP and 50 nM NHis-tagged 4E-BPI in 20 mM Hepes, pH 7.2, 1 mM DTT, 50 mM NaCl, 10 mM MnCl2, 0.02 mg/mL BSA, 0.01% CHAPS, 50 mM β-glycerophosphate. Following an incubation of 120 minutes at ambient temperature, 20 μL of the reaction volume was transferred to a Ni-Chelate-coated 384-well plate. The binding step of the 4E-BP1 protein proceeded for 60 minutes, followed by washing 4 times each with 50 μL of Tris-buffered saline solution (TBS). Anti-phospho-4E-BP1 rabbit-IgG (20 μL, 1:5000) in 5% BSA-TBST (0.2% Tween-20 in TBS) was added and further incubated for 60 minutes. Incubation with a secondary HRP-tagged anti-IgG was similarly performed after washing off the primary antibody (4 washes of 50 μL). Following the final wash step with TBST, 20 μL of SuperSignal ELISA Femto (Pierce Biotechnology) was added and the luminescence measured using an EnVision plate reader.
# PI3Kα = PI3Kα (Homo sapiens, UniProt P42336); assay: PI3K Biochemical Assay (ATP consumed, luciferase-luciferin chemiluminescence); details: 1 μM ATP, 10 μM PIP2; last bin: >= 2,000 nM or not active under the conditions the assay was run; read-out: IC50 for PI3Kα in this assay
# Chain of PI3Kα (P42336 whole entry): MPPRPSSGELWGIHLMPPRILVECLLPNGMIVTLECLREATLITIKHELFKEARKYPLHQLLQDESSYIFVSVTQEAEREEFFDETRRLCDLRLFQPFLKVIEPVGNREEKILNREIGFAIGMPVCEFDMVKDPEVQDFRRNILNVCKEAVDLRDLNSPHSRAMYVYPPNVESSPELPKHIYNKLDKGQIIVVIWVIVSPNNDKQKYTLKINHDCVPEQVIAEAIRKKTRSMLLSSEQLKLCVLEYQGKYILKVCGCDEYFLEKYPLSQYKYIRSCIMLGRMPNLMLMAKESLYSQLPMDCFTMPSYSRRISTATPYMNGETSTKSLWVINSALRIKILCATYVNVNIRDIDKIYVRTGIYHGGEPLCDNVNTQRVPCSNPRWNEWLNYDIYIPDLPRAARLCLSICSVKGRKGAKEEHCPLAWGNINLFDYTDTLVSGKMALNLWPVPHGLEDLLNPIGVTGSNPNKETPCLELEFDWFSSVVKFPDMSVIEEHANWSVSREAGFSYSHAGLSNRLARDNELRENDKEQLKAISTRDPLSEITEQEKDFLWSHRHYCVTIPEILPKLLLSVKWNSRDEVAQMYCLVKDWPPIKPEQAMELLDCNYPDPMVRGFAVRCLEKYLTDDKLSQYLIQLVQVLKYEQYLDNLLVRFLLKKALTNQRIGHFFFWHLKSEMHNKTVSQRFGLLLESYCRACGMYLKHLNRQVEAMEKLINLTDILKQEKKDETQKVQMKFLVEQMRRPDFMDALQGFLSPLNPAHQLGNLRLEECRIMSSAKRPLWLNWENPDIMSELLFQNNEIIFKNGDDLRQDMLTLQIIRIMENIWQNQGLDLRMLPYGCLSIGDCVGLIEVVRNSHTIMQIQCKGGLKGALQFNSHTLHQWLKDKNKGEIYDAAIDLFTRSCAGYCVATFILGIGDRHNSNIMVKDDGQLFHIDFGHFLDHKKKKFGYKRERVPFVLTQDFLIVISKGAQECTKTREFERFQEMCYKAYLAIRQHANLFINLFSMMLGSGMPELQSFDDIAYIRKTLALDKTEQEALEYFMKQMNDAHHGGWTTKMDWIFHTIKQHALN
# Chain of PI3Kα (P27986 whole entry partner): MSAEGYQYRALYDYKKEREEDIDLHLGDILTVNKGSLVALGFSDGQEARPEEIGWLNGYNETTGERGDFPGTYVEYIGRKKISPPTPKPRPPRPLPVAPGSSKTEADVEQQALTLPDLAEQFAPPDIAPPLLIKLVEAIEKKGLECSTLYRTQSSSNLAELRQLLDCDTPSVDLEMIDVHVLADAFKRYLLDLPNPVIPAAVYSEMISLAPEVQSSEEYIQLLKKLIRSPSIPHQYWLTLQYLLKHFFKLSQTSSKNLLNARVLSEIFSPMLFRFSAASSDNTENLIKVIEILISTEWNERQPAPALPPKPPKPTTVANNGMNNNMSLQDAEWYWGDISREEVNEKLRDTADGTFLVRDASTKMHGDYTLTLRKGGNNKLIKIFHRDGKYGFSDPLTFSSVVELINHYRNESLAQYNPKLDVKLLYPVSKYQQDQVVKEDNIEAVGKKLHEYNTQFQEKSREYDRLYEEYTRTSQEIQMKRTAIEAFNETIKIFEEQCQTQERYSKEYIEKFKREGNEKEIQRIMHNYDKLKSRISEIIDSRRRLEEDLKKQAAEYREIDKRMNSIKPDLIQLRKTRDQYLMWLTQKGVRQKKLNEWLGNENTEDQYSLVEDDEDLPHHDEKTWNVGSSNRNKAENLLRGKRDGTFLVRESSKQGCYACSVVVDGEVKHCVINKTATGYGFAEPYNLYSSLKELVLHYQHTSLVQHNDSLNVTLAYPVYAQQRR
# Protocol: PI3Kα activity is measured as the percent of ATP consumed following the kinase reaction using luciferase-luciferin-coupled chemiluminescence. Reactions were conducted in 384-well white, medium binding microtiter plates (Greiner). Kinase reactions were initiated by combining test compounds, ATP, substrate (PIP2), and kinase in a 20 μL volume in a buffer solution. The standard PI3Kalpha assay buffer is composed 50 mM Tris, pH 7.5, 1 mM EGTA, 10 mM MgCl2, 1 mM DTT and 0.03% CHAPS. The standard assay concentrations for enzyme, ATP, and substrate are 1.5 nM, 1 μM, and 10 μM, respectively. The reaction mixture was incubated at ambient temperature for approximately 2 h. Following the kinase reaction, a 10 μL aliquot of luciferase-luciferin mix (Promega Kinase-Glo) was added and the chemiluminescence signal measured using a Victor2 plate reader (Perkin Elmer). Total ATP consumption was limited to 40-60% and IC50 values of control compounds correlate well with literature references. Substituting PI3Kα with PI3Kβ, PI3Kγ, or PI3Kδ, the inhibitory activity of the compounds for the other isoforms of I3K were measured.
SMILES,IC50 (mTOR/GbL/Raptor (mTORC1)) [nM],IC50 (PI3Kα) [nM]
"Cc1nc2ccc(-c3ccc4c(c3)CN(c3ccncn3)CCO4)cc2[nH]1 [Compound 2, 7-(2-methyl-1H-benzimidazol-6-yl)-4-pyrimidin-4-yl-2,3,4,5-tetrahydro-1,4-benzoxazepine]",≥ 2000,–
CCN(CC)c1nc(N2CCOc3ccc(-c4ccc5nc(C)[nH]c5c4)cc3C2)c2ccccc2n1 [Compound 6],–,≥ 2000
Cc1nc2ccc(-c3ccc4c(c3)CN(c3cc(-c5ccccc5)nc(-c5ccccc5)n3)CCO4)cc2[nH]1 [Compound 7],–,≥ 2000
"Cc1nc2ccc(-c3ccc4c(c3)CN(c3ncnc5ccc(Br)cc35)CCO4)cc2[nH]1 [Compound 12, 4-(6-bromoquinazolin-4-yl)-7-(2-methyl-1H-benzimidazol-6-yl)-2,3,4,5-tetrahydro-1,4-benzoxazepine]",≤ 10,–
"Cc1nc2ccc(-c3ccc4c(c3)CN(c3ncnc5ccc(Cl)cc35)CCO4)cc2[nH]1 [Compound 13, 4-(6-chloroquinazolin-4-yl)-7-(2-methyl-1H-benzimidazol-6-yl)-2,3,4,5-tetrahydro-1,4-benzoxazepine]",≤ 10,–
"Cc1nc2ccc(-c3ccc4c(c3)CN(c3ncnc5c(Br)cccc35)CCO4)cc2[nH]1 [Compound 25, 4-(8-bromoquinazolin-4-yl)-7-(2-methyl-1H-benzimidazol-6-yl)-2,3,4,5-tetrahydro-1,4-benzoxazepine]",50 to 250,–
"Cn1cnc2cc(-c3ccc4c(c3)CN(c3ccnc5ccccc35)CCO4)ccc21 [Compound 130, 7-(1-methyl-1H-benzimidazol-5-yl)-4-quinolin-4-yl-2,3,4,5-tetrahydro-1,4-benzoxazepine]",250 to 1000,1000 to 2000
"Cn1ccc2cc(-c3ccc4c(c3)CN(c3ccnc5ccccc35)CCO4)ccc21 [Compound 133, 7-(1-methyl-1H-indol-5-yl)-4-quinolin-4-yl-2,3,4,5-tetrahydro-1,4-benzoxazepine]",1000 to 2000,–
"CC1(C)CCc2ncnc(N3CCOc4ccc(-c5ccc6nc[nH]c6c5)cc4C3)c2C1 [Compound 219, 7-(1H-benzimidazol-6-yl)-4-(6,6-dimethyl-5,6,7,8-tetrahydroquinazolin-4-yl)-2,3,4,5-tetrahydro-1,4-benzoxazepine]",≤ 10,–
"COC(=O)Nc1nc2ccc(-c3ccc4c(c3)CN(c3ncnc5c3CC(C)(C)CC5)CCO4)cc2[nH]1 [Compound 235, methyl {6-[4-(6,6-dimethyl-5,6,7,8-tetrahydroquinazolin-4-yl)-2,3,4,5-tetrahydro-1,4-benzoxazepin-7-yl]-1H-benzimidazol-2-yl}carbamate]",50 to 250,–
"CCNc1nc2ccc(-c3ccc4c(c3)CN(c3nc(C)nc5cc(O)ccc35)CCO4)cc2[nH]1 [Compound 285, 4-{7-[2-(ethylamino)-1H-benzimidazol-6-yl]-2,3-dihydro-1,4-benzoxazepin-4(5H)-yl}-2-methylquinazolin-7-ol]",50 to 250,–
"Cc1nc2cc(-c3ccc4c(c3)CN(c3nc(CN(C)C)nc(C)c3C)CCO4)cnc2[nH]1 [Compound 335, 1-{4,5-dimethyl-6-[7-(2-methyl-3H-imidazo[4,5-b]pyridin-6-yl)-2,3-dihydro-1,4-benzoxazepin-4(5H)-yl]pyrimidin-2-yl}-N,N-dimethylmethanamine]",1000 to 2000,–
"Cc1nc2ccc(-c3ccc4c(c3)CN(c3nc(C(C)(C)O)nc5c3CC(C)(C)CC5)CCO4)cc2[nH]1 [Compound 362, 2-{6,6-dimethyl-4-[7-(2-methyl-1H-benzimidazol-6-yl)-2,3-dihydro-1,4-benzoxazepin-4(5H)-yl]-5,6,7,8-tetrahydroquinazolin-2-yl}propan-2-ol]",50 to 250,–
"CC1(C)CCc2ncnc(N3CCOc4ccc(-c5cnc(N)c(S(=O)(=O)N6CCC(N)C6)c5)cc4C3)c2C1 (stereo not shown) [Compound 445, 3-[(3-aminopyrrolidin-1-yl)sulfonyl]-5-[4-(6,6-dimethyl-5,6,7,8-tetrahydroquinazolin-4-yl)-2,3,4,5-tetrahydro-1,4-benzoxazepin-7-yl]pyridin-2-amine]",10 to 50,–
"CC(C)(O)CCS(=O)(=O)c1cc(-c2ccc3c(c2)CN(c2ncnc4c2CC(C)(C)CC4)CCO3)cnc1N [Compound 459, 4-({2-amino-5-[4-(6,6-dimethyl-5,6,7,8-tetrahydroquinazolin-4-yl)-2,3,4,5-tetrahydro-1,4-benzoxazepin-7-yl]pyridin-3-yl}sulfonyl)-2-methylbutan-2-ol]",50 to 250,–
"Cc1nc2cc(-c3ccc4c(c3)CN(c3nc(C5CCCN5)nc5c3CC(C)(C)CC5)CCO4)cnc2[nH]1 (stereo not shown) [Compound 474, 4-(6,6-dimethyl-2-pyrrolidin-2-yl-5,6,7,8-tetrahydroquinazolin-4-yl)-7-(2-methyl-3H-imidazo[4,5-b]pyridin-6-yl)-2,3,4,5-tetrahydro-1,4-benzoxazepine]",≤ 10,–
"CC1(C)CCc2ncnc(N3CCOc4ccc(-c5cnc6c(c5)OCCN6)cc4C3)c2C1 [Compound 569, 7-(3,4-dihydro-2H-pyrido[3,2-b][1,4]oxazin-7-yl)-4-(6,6-dimethyl-5,6,7,8-tetrahydroquinazolin-4-yl)-2,3,4,5-tetrahydro-1,4-benzoxazepine]",50 to 250,–
"CC1(C)CCc2ncnc(N3CCOc4ccc(-c5cnc(NCc6ccccc6)c(NS(C)(=O)=O)c5)cc4C3)c2C1 [Compound 630, N-{5-[4-(6,6-dimethyl-5,6,7,8-tetrahydroquinazolin-4-yl)-2,3,4,5-tetrahydro-1,4-benzoxazepin-7-yl]-2-[(phethylmethyl)amino]pyridin-3-yl}methanesulfonamide]",≥ 2000,–
"CCNc1nc2ccc(-c3ccc4c(c3)CN(c3cc(C)nc5cc(F)ccc35)CCO4)cc2[nH]1 [Compound 641, N-ethyl-6-[4-(7-fluoro-2-methylquinolin-4-yl)-2,3,4,5-tetrahydro-1,4-benzoxazepin-7-yl]-1H-benzimidazol-2-amine]",50 to 250,–
"Cc1nc2cc(-c3ccc4c(c3)CN(c3nc([C@@H]5CCCN5C(=O)OCc5ccccc5)nc5c3CC(C)(C)CC5)CCO4)cnc2[nH]1 [Compound 645, phenylmethyl (2S)-2-{6,6-dimethyl-4-[7-(2-methyl-3H-imidazo[4,5-b]pyridin-6-yl)-2,3-dihydro-1,4-benzoxazepin-4(5H)-yl]-5,6,7,8-tetrahydroquinazolin-2-yl}pyrrolidine-1-carboxylate]",–,1000 to 2000
"Cc1nc2cc(-c3ccc4c(c3)CN(c3nc(N)nc(C)c3Cc3ccc(F)cc3)CCO4)ccc2[nH]1 [Compound 660, 5-[(4-fluorophenyl)methyl]-4-methyl-6-[7-(2-methyl-1H-benzimidazol-5-yl)-2,3-dihydro-1,4-benzoxazepin-4(5H)-yl]pyrimidin-2-amine]",≤ 10,–
